# Experimental data from ChEMBL document CHEMBL3885881, “DrugMatrix”.
# Species: Rattus norvegicus
# Experiment: DrugMatrix - Regimen: Daily Repeat
# Assay type: toxicity, organism-based, Sprague-Dawley
# Set-up: regimen Daily Repeat, gender Male, age 6-8 weeks
# Conditions: in vivo, po, route oral GAVAGE, […]; for ABSOLUTE BASOPHIL / ABSOLUTE EOSINOPHIL / ABSOLUTE LYMPHOCYTE / ABSOLUTE MONOCYTE / ABSOLUTE SEGMENTED NEUTROPHIL / BASOPHIL / EOSINOPHIL / ERYTHROCYTE COUNT / HEMATOCRIT / HEMOGLOBIN / LEUKOCYTE COUNT / LYMPHOCYTE / MEAN CORPUSCULAR HEMOGLOBIN / MEAN CORPUSCULAR HEMOGLOBIN CONCENTRATION / MEAN CORPUSCULAR VOLUME / MONOCYTE / NEUTROPHIL / NUCLEATED RED BLOOD CELLS / PLATELET COUNT: tissue Blood; for ALANINE AMINOTRANSFERASE / ALBUMIN / ALKALINE PHOSPHATASE / ASPARTATE AMINOTRANSFERASE / BLOOD UREA NITROGEN / CARBON DIOXIDE / CHLORIDE / CHOLESTEROL / CREATINE PHOSPHOKINASE / CREATININE / GLUCOSE / LACTATE DEHYDROGENASE / LIPASE / PHOSPHORUS / POTASSIUM / SODIUM / TOTAL BILIRUBIN / TOTAL PROTEIN / URIC ACID: tissue Plasma
# [1] = 280 mg/kg, 120 h, dose level High, time 5 day
# [2] = 72 h, dose 2.8 mg/Kg, dose level Low, time 3 day
# [3] = 120 h, dose 2.8 mg/Kg, dose level Low, time 5 day
compound,measurement,setting,value
CC/C(=C(/CC)c1ccc(O)cc1)c1ccc(O)cc1 [DIETHYLSTILBESTROL],ABSOLUTE BASOPHIL,[1],0 CELLS/uL
same,ABSOLUTE EOSINOPHIL,[1],0 CELLS/uL
same,ABSOLUTE LYMPHOCYTE,[1],5802 CELLS/uL
same,ABSOLUTE MONOCYTE,[1],16.67 CELLS/uL
same,ABSOLUTE SEGMENTED NEUTROPHIL,[1],514.67 CELLS/uL
same,BASOPHIL,[1],0%
same,EOSINOPHIL,[1],0%
same,ERYTHROCYTE COUNT,[1],5.3 x10E6/uL
same,HEMATOCRIT,[1],33.4%
same,HEMOGLOBIN,[1],12.67 G/DL
same,LEUKOCYTE COUNT,[1],6.33 x10E3/uL
same,LYMPHOCYTE,[1],91.33%
same,MEAN CORPUSCULAR HEMOGLOBIN,[1],23.9 pg
same,MEAN CORPUSCULAR HEMOGLOBIN CONCENTRATION,[1],37.97 G/DL
same,MEAN CORPUSCULAR VOLUME,[1],62.97 fL
same,MONOCYTE,[1],0.33%
same,NEUTROPHIL,[1],8.33%
same,NUCLEATED RED BLOOD CELLS,[1],0.33 /100WBC
same,PLATELET COUNT,[1],1806.33 x10E3/uL
same,ALANINE AMINOTRANSFERASE,[1],47.33 u/L
same,ALBUMIN,[1],3.6 G/DL
same,ALKALINE PHOSPHATASE,[1],594.67 u/L
same,ASPARTATE AMINOTRANSFERASE,[1],59 u/L
same,BLOOD UREA NITROGEN,[1],14 mg/dL
same,CARBON DIOXIDE,[1],28.33 mmol/L
same,CHLORIDE,[1],100 MEQ/L
same,CHOLESTEROL,[1],35 mg/dL
same,CREATINE PHOSPHOKINASE,[1],88.33 u/L
same,CREATININE,[1],0.3 mg/dL
same,GLUCOSE,[1],144.67 mg/dL
same,LACTATE DEHYDROGENASE,[1],47.33 u/L
same,LIPASE,[1],9 u/L
same,PHOSPHORUS,[1],9.33 mg/dL
same,POTASSIUM,[1],5.01 MEQ/L
same,SODIUM,[1],147.6 MEQ/L
same,TOTAL BILIRUBIN,[1],0.6 mg/dL
same,TOTAL PROTEIN,[1],6.27 G/DL
same,URIC ACID,[1],0.3 mg/dL
same,ABSOLUTE BASOPHIL,[2],0 CELLS/uL
same,ABSOLUTE EOSINOPHIL,[2],0 CELLS/uL
same,ABSOLUTE LYMPHOCYTE,[2],8607.33 CELLS/uL
same,ABSOLUTE MONOCYTE,[2],102 CELLS/uL
same,ABSOLUTE SEGMENTED NEUTROPHIL,[2],1057.33 CELLS/uL
same,BASOPHIL,[2],0%
same,EOSINOPHIL,[2],0%
same,ERYTHROCYTE COUNT,[2],5.52 x10E6/uL
same,HEMATOCRIT,[2],33.53%
same,HEMOGLOBIN,[2],13.07 G/DL
same,LEUKOCYTE COUNT,[2],9.77 x10E3/uL
same,LYMPHOCYTE,[2],88%
same,MEAN CORPUSCULAR HEMOGLOBIN,[2],23.73 pg
same,MEAN CORPUSCULAR HEMOGLOBIN CONCENTRATION,[2],39.03 G/DL
same,MEAN CORPUSCULAR VOLUME,[2],60.87 fL
same,MONOCYTE,[2],1%
same,NEUTROPHIL,[2],11%
same,NUCLEATED RED BLOOD CELLS,[2],0 /100WBC
same,PLATELET COUNT,[2],1167 x10E3/uL
same,ALANINE AMINOTRANSFERASE,[2],57.33 u/L
same,ALBUMIN,[2],3.83 G/DL
same,ALKALINE PHOSPHATASE,[2],627.67 u/L
same,ASPARTATE AMINOTRANSFERASE,[2],71 u/L
same,BLOOD UREA NITROGEN,[2],7.67 mg/dL
same,CARBON DIOXIDE,[2],26.67 mmol/L
same,CHLORIDE,[2],105.33 MEQ/L
same,CHOLESTEROL,[2],24.33 mg/dL
same,CREATINE PHOSPHOKINASE,[2],222.33 u/L
same,CREATININE,[2],0.12 mg/dL
same,GLUCOSE,[2],155.33 mg/dL
same,LACTATE DEHYDROGENASE,[2],64 u/L
same,LIPASE,[2],8 u/L
same,PHOSPHORUS,[2],9.27 mg/dL
same,POTASSIUM,[2],5.23 MEQ/L
same,SODIUM,[2],147.13 MEQ/L
same,TOTAL BILIRUBIN,[2],0.13 mg/dL
same,TOTAL PROTEIN,[2],5.6 G/DL
same,URIC ACID,[2],0.6 mg/dL
same,ABSOLUTE BASOPHIL,[3],0 CELLS/uL
same,ABSOLUTE EOSINOPHIL,[3],46 CELLS/uL
same,ABSOLUTE LYMPHOCYTE,[3],6817.67 CELLS/uL
same,ABSOLUTE MONOCYTE,[3],68 CELLS/uL
same,ABSOLUTE SEGMENTED NEUTROPHIL,[3],335 CELLS/uL
same,BASOPHIL,[3],0%
same,EOSINOPHIL,[3],0.67%
same,ERYTHROCYTE COUNT,[3],5.68 x10E6/uL
same,HEMATOCRIT,[3],36.33%
same,HEMOGLOBIN,[3],13.8 G/DL
same,LEUKOCYTE COUNT,[3],7.27 x10E3/uL
same,LYMPHOCYTE,[3],93.33%
same,MEAN CORPUSCULAR HEMOGLOBIN,[3],24.3 pg
same,MEAN CORPUSCULAR HEMOGLOBIN CONCENTRATION,[3],38.03 G/DL
same,MEAN CORPUSCULAR VOLUME,[3],64 fL
same,MONOCYTE,[3],0.67%
same,NEUTROPHIL,[3],5.33%
same,NUCLEATED RED BLOOD CELLS,[3],0.33 /100WBC
same,PLATELET COUNT,[3],1219.67 x10E3/uL
same,ALANINE AMINOTRANSFERASE,[3],60.67 u/L
same,ALBUMIN,[3],3.7 G/DL
same,ALKALINE PHOSPHATASE,[3],729.67 u/L
same,ASPARTATE AMINOTRANSFERASE,[3],65.67 u/L
same,BLOOD UREA NITROGEN,[3],11.33 mg/dL
same,CARBON DIOXIDE,[3],26.33 mmol/L
same,CHLORIDE,[3],103.33 MEQ/L
same,CHOLESTEROL,[3],19.33 mg/dL
same,CREATINE PHOSPHOKINASE,[3],162.33 u/L
same,CREATININE,[3],0.19 mg/dL
same,GLUCOSE,[3],151.33 mg/dL
same,LACTATE DEHYDROGENASE,[3],62 u/L
same,LIPASE,[3],9.33 u/L
same,PHOSPHORUS,[3],8.9 mg/dL
same,POTASSIUM,[3],4.57 MEQ/L
same,SODIUM,[3],146.9 MEQ/L
same,TOTAL BILIRUBIN,[3],0.13 mg/dL
same,TOTAL PROTEIN,[3],6.03 G/DL
same,URIC ACID,[3],0.5 mg/dL
